#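 96-well plates; 48 h exposure; 5 concentrations. Endpoints by linear interpolation between flanking doses. Not reached: highest tested concentration assigned. TGI marks complete inhibition of growth.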
# What was measured:
# Assay in all cases: NCI-60 cell line screen, 48 h
# [1] = tested on: 786-0 renal
# [2] = tested on: A498 renal
# [3] = tested on: A549 NSCLC
# [4] = tested on: ACHN renal
# [5] = tested on: CAKI-1 renal
# [6] = tested on: CCRF-CEM leukemia
# [7] = tested on: COLO 205 colon
# [8] = tested on: DLD-1 colon
# [9] = tested on: DMS 114 small cell lung
# [10] = tested on: DMS 273 small cell lung
# [11] = tested on: EKVX NSCLC
# [12] = tested on: HCT-116 colon
# [13] = tested on: HCT-15 colon
# [14] = tested on: HL-60(TB) leukemia
# [15] = tested on: HOP-18 NSCLC
# [16] = tested on: HOP-62 NSCLC
# [17] = tested on: HOP-92 NSCLC
# [18] = tested on: HT29 colon
# [19] = tested on: IGROV1 ovarian
# [20] = tested on: K-562 leukemia
# [21] = tested on: KM12 colon
# [22] = tested on: KM20L2 colon
# [23] = tested on: LOX IMVI melanoma
# [24] = tested on: LXFL 529 NSCLC
# [25] = tested on: M14 melanoma
# [26] = tested on: M19-MEL melanoma
# [27] = tested on: MALME-3M melanoma
# [28] = tested on: MOLT-4 leukemia
# [29] = tested on: NCI-H226 lung
# [30] = tested on: NCI-H23 lung
# [31] = tested on: NCI-H460 lung
# [32] = tested on: NCI-H522 lung
# [33] = tested on: OVCAR-3 ovarian
# [34] = tested on: OVCAR-4 ovarian
# [35] = tested on: OVCAR-5 ovarian
# [36] = tested on: OVCAR-8 ovarian
# [37] = tested on: RPMI-8226 leukemia
# [38] = tested on: RXF 393 renal
# [39] = tested on: SF-268 CNS
# [40] = tested on: SF-295 CNS
# [41] = tested on: SF-539 CNS
# [42] = tested on: SK-MEL-2 melanoma
# [43] = tested on: SK-MEL-28 melanoma
# [44] = tested on: SK-MEL-5 melanoma
# [45] = tested on: SK-OV-3 ovarian
# [46] = tested on: SN12C renal
# [47] = tested on: SNB-75 CNS
# [48] = tested on: SNB-78 CNS
# [49] = tested on: SR leukemia
# [50] = tested on: SW-620 colon
# [51] = tested on: TK-10 renal
# [52] = tested on: U251 CNS
# [53] = tested on: UACC-257 melanoma
# [54] = tested on: UACC-62 melanoma
# [55] = tested on: UO-31 renal
# [56] = tested on: XF 498 CNS
# [57] = tested on: HCC-2998 colon
# [58] = tested on: SNB-19 CNS
smiles,measurement,setting,value
C[N+]1=c2c3cccc4cccc(c(=O)n2CCC1)c43,TGI,[1],> 100 µM
same,TGI,[2],36.5 µM
same,TGI,[3],96.8 µM
same,TGI,[4],51.8 µM
same,TGI,[5],84 µM
same,TGI,[6],28.9 µM
same,TGI,[7],32.2 µM
same,TGI,[8],46.9 µM
same,TGI,[9],38.7 µM
same,TGI,[10],56.7 µM
same,TGI,[11],65 µM
same,TGI,[12],43.6 µM
same,TGI,[13],> 100 µM
same,TGI,[14],25.3 µM
same,TGI,[15],> 100 µM
same,TGI,[16],86.2 µM
same,TGI,[17],93.3 µM
same,TGI,[18],52.5 µM
same,TGI,[19],> 100 µM
same,TGI,[20],32 µM
same,TGI,[21],> 100 µM
same,TGI,[22],47.2 µM
same,TGI,[23],29.4 µM
same,TGI,[24],40.7 µM
same,TGI,[25],33.2 µM
same,TGI,[26],35.8 µM
same,TGI,[27],32.9 µM
same,TGI,[28],58.9 µM
same,TGI,[29],36.5 µM
same,TGI,[30],39.1 µM
same,TGI,[31],37.7 µM
same,TGI,[32],30.2 µM
same,TGI,[33],55.1 µM
same,TGI,[34],42.9 µM
same,TGI,[35],36.5 µM
same,TGI,[36],39.9 µM
same,TGI,[37],52.3 µM
same,TGI,[38],60.8 µM
same,TGI,[39],60.2 µM
same,TGI,[40],> 100 µM
same,TGI,[41],> 100 µM
same,TGI,[42],35.3 µM
same,TGI,[43],39.6 µM
same,TGI,[44],32.5 µM
same,TGI,[45],80.1 µM
same,TGI,[46],52.7 µM
same,TGI,[47],78.7 µM
same,TGI,[48],94.6 µM
same,TGI,[49],46.9 µM
same,TGI,[50],> 100 µM
same,TGI,[51],56.4 µM
same,TGI,[52],> 100 µM
same,TGI,[53],32.9 µM
same,TGI,[54],34.1 µM
same,TGI,[55],39.5 µM
same,TGI,[56],38 µM
COC(=O)/C(=N\O)C(C(=O)C=C(C)C)C(=O)C(=O)Nc1ccccc1C (centres undefined),TGI,[1],> 100 µM
same,TGI,[2],> 100 µM
same,TGI,[3],> 100 µM
same,TGI,[4],> 100 µM
same,TGI,[5],> 100 µM
same,TGI,[6],> 100 µM
same,TGI,[7],> 100 µM
same,TGI,[8],> 100 µM
same,TGI,[9],> 100 µM
same,TGI,[10],> 100 µM
same,TGI,[11],> 100 µM
same,TGI,[57],> 100 µM
same,TGI,[12],> 100 µM
same,TGI,[13],> 100 µM
same,TGI,[14],> 100 µM
same,TGI,[15],> 100 µM
same,TGI,[16],> 100 µM
same,TGI,[17],> 100 µM
same,TGI,[18],> 100 µM
same,TGI,[19],> 100 µM
same,TGI,[20],> 100 µM
same,TGI,[21],> 100 µM
same,TGI,[22],> 100 µM
same,TGI,[23],> 100 µM
same,TGI,[24],> 100 µM
same,TGI,[25],> 100 µM
same,TGI,[26],> 100 µM
same,TGI,[27],> 100 µM
same,TGI,[28],> 100 µM
same,TGI,[29],> 100 µM
same,TGI,[30],> 100 µM
same,TGI,[31],> 100 µM
same,TGI,[32],> 100 µM
same,TGI,[33],> 100 µM
same,TGI,[34],> 100 µM
same,TGI,[35],> 100 µM
same,TGI,[36],> 100 µM
same,TGI,[37],> 100 µM
same,TGI,[38],> 100 µM
same,TGI,[39],> 100 µM
same,TGI,[40],> 100 µM
same,TGI,[41],> 100 µM
same,TGI,[42],> 100 µM
same,TGI,[43],> 100 µM
same,TGI,[44],> 100 µM
same,TGI,[45],> 100 µM
same,TGI,[46],> 100 µM
same,TGI,[58],> 100 µM
same,TGI,[47],> 100 µM
same,TGI,[48],> 100 µM
same,TGI,[49],> 100 µM
same,TGI,[50],> 100 µM
same,TGI,[51],> 100 µM
same,TGI,[52],> 100 µM
same,TGI,[53],> 100 µM
same,TGI,[54],> 100 µM
same,TGI,[55],> 100 µM
same,TGI,[56],> 100 µM

# Source: PubChem BioAssay (NCI)
